The source of these data is US20250092093A1, “Androgen receptor protein degradation-inducing peptides for prostate cancer treatment” (priority 2023, published 2025).

Residue numbers refer to the chain shown, from its start. Ends that are not written are not given here. * marks the point of attachment. Myristoyl = CCCCCCCCCCCCCC(=O)*

Assay [1] deals with C4-2B cells. The assay can be described thus: Apoptotic cell death by PARP cleavage western blot in C4-2B cells. It counts as cell-based. To be noted: N-terminal myristylated peptides. Here is the method: (§1) A. C4-2B cells were treated with peptides (10 micro-M) for 24 h as indicated, and AR protein levels were assessed by western blots. B. C4-2B cells were treated with peptides and harvested for western blot assay with an anti-PARP antibody. Actin blot served as a protein loading control. C. Flow cytometry analysis of subG1/GO cell cycle population in C4-2B cells after peptide treatment (10 micro-M) in 2% charcoal-stripped FBS for 24 h. Data represents two experiments. The asterisk indicates a significant difference compared to the DSMO control (p<0.05, Student t-test).
(§2) We further characterized the ARi14 peptide for its core sequence of action. The ARi14 peptide was chopped into two fragments, the 7-mer ARi7 peptide (EAAAYQS) and 8-mer ARi8 peptide ([…]), and their AR degradation inducing ability was compared to the original 14-mer peptide (FIG. 3). These peptides were synthesized with an N-terminal myristylation signal to facilitate cellular uptake.

Assay [2] has as its target T1, AR protein (Homo sapiens, UniProt P10275, T878A).
T1 construct: C4-2B cells were treated with peptides (10 micro-M) for 24 h as indicated, and AR protein levels were assessed by western blots; endogenous in cells; host or cells: C4-2B
T1 sequence (P10275 1-920 T878A): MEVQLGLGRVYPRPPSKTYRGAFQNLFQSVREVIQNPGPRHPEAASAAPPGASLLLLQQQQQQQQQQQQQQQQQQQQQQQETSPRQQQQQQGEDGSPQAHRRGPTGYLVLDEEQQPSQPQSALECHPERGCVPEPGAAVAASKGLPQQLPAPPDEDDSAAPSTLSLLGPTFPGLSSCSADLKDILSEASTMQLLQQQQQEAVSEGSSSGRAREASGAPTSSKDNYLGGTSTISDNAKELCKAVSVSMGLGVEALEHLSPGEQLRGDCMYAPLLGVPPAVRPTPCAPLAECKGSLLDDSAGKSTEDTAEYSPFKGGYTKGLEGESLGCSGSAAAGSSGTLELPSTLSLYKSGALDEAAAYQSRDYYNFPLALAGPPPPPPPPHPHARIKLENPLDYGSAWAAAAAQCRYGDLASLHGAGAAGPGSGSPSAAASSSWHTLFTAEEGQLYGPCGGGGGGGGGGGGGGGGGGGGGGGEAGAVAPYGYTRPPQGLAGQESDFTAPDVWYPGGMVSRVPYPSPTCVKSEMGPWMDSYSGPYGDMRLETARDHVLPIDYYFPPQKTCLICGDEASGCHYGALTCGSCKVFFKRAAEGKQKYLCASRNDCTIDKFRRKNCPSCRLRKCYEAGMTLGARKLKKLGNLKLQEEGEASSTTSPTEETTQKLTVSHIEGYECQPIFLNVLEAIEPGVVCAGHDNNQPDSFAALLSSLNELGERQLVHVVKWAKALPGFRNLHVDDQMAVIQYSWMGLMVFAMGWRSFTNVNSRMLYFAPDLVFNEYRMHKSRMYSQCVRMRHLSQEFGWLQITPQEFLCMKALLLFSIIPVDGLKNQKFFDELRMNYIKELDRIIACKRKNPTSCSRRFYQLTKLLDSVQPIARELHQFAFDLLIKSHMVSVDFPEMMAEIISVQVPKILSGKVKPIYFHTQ
The assay can be described thus: AR protein level by western blot in C4-2B cells. To be noted: 10 micro-M. In kind it is cell-based. Here is the method: as §1
A. Peptide analogs were synthesized as listed in the top panel. The myristylation sequence was conjugated to the N-terminal of the peptide for penetrating the plasma membrane. B. Prostate cancer C4-2B cells were treated with the agents at a concentration of 10 micro-M for 48 h. Cells were harvested for western blot assay with AR antibody (clone PG21). The Actin blot served as a protein loading control. […]
We further characterized the ARi14 peptide for its core sequence of action. The ARi14 peptide was chopped into two fragments, the 7-mer ARi7 peptide (EAAAYQS) and 8-mer ARi8 peptide ([…]), and their AR degradation inducing ability was compared to the original 14-mer peptide (FIG. 3). These peptides were synthesized with an N-terminal myristylation signal to facilitate cellular uptake. […]
(Immunoblotting shows a protein as a band on a membrane.)

For assay [3], the system named is C4-2B cells. The assay can be described thus: Flow cytometry analysis of subG1/GO cell cycle population in C4-2B cells. It counts as cell-based. To be noted: Enzalutamide-resistant C4-2B cells, 10 micro-M, 24 h, 2% charcoal-stripped FBS. Here is the method: as §1, §2
Background: In flow cytometry, cells or beads pass a laser one at a time.

For assay [4], the system named is LAPC-4 cells. The assay can be described thus: Cell viability / cell death by microscopic images in LAPC-4 cells. It counts as cell-based. To be noted: 10 micro-M, 24 h. As for the experimental part: (§3) A. ARi14 peptide was fused with the KDM4A CPP sequence via a short link (KDM4A-ARi14). This fused peptide was labeled with FITC fluorescent dye. B. LAPC-4 cells were treated with the solvent, or the peptides as indicated at 10 micro-M in 2% charcoal-striped FBS-supplied media for 24 h. Cellular proteins were subjected to a western blot with an anti-AR antibody (clone PG21). Actin blot served as a protein loading control. C. Microscopic images were shown for cell viability. Note: white arrows indicate a cluster of dying cells loaded with fluorescent-labeled peptides.
(§4) To achieve a better intracellular distribution of the peptide, a cellular penetrating peptide (CPP) derived from the KDM4A protein was fused to the N-terminal of the ARil4 peptide via a short link sequence GGGS (FIG. 2A).

Assay [5] concerns the target T2, AR protein (Homo sapiens, UniProt P10275).
T2 sequence (P10275 1-920): T1 sequence (P10275 1-920 T878A) with A878T
Nature of the assay: AR protein level by western blot in LAPC-4 cells. In kind it is cell-based. To be noted: 10 micro-M, 24 h, 2% charcoal-stripped FBS. Here is the method:
as §3, §4

Assay [6] has as its target T2, AR protein. To be noted: reported in the literature [3]; cited from earlier work.
Where [7] appears, read: N-terminal myristylated peptides, 24 h.

“SRDYYNFP [ARi8, 8-mer fragment of ARi14, synthesized with an N-terminal myristylation signal]”: the “apoptotic cell death evidenced by PARP cleavage” value in assay [1] is “more profound apoptotic cell death than ARi14”. Moreover, the AR reduction in assay [2] (setting [7]) was determined as 92%. Also, the “cell cycle arrest at the subG1/GO phase” value in assay [3] is recorded as “induced cell cycle arrest”.
As to “EAAAYQS [ARi7, 7-mer fragment of ARi14, synthesized with an N-terminal myristylation signal]”, the “impact on the AR protein level” value in assay [2] (setting [7]) was “no impact”.
For “EAAAYQSRDYYNFP [ARi14, decoy peptide derived from the AR N-terminal domain, amino acids 355-368; myristylated form used in b32]”, the “cell death response / cell viability” value in assay [4] is given as “no apparent effect”. Besides, the AR reduction in assay [2] (setting [7]) came to 78%. For the same molecule, the “cell cycle arrest at the subG1/GO phase” value in assay [3] is “induced cell cycle arrest”. In assay [5], the AR protein level result was “no apparent effect”.
Regarding `COc1ccc(/C=C/C(=O)/C=C(O)/C=C/c2ccc(OC)c(OC)c2)cc1OC` [ASC-J9], the “AR protein degradation in prostate cancer cells” value in assay [6] is recorded as “induced AR protein degradation”.
For the molecule “ARi10: new analog of ARi8, myristylation sequence at the N-terminal (Myristoyl-YQSRDYYNFP)”, the AR protein levels entry in assay [2] (myristylated peptides, 48 h) was “largely reduced”.
